Reference: patent US20260327240A1, “1,4-CINEOLE DERIVATIVE AND INTERMEDIATE THEREOF, HERBICIDE CONTAINING SAID DERIVATIVE AS ACTIVE INGREDIENT, METHOD FOR USING HERBICIDE, AND METHOD FOR PREPARING AGROCHEMICAL COMPOSITION” (HOKKO CHEMICAL INDUSTRY CO., LTD., priority 2023, published 2026)

Assays:
Type in all cases: in vivo
[1] = test system: Echinochloa crus-galli var. formosensis; assay: Comparative Example: herbicidal effect test by application during growth period of paddy rice (three-leaf stage); conditions: 504 h, 7.5 g per 10 ares, 21 days after application, triplicate, read-out: Weed inhibition rate (%)
Method: As an example, the herbicidal effect on Echinochloa crus-galli var. formosensis at the three-leaf stage was confirmed by the following method, and the results are specifically shown in Table 7 as a comparative example.
(§1) Herbicidal Effect Test by Application During Growth Period of Paddy Rice
Wagner pots with an area of […] were filled with paddy soil, followed by addition of water and incorporation of chemical fertilizer (N:P:K=16:16:16), after which puddling was performed. After that, 30 seeds of Echinochloa crus-galli var. formosensis were sown at a depth of 0 cm to 1 cm. Immediately after sowing, the pots were flooded and a water depth of approximately 3 cm was maintained. Subsequent management was conducted in a glass greenhouse. When Echinochloa crus-galli var. formosensis reached the three-leaf stage, an emulsifiable concentrate prepared according to Formulation Example 5 using the compound shown below was diluted with water, and a specified amount of the diluted solution was applied by dropper. The amount of the active ingredient to be applied was equivalent to 7.5 g per 10 ares. The test was conducted in triplicate for each chemical concentration group, and the weed inhibition rate (%) was determined 21 days after chemical application using the following formula (Math. 1).

[2] = test system: Echinochloa crus-galli var. formosensis; assay: Test Example 1: herbicidal effect test by soil application in paddy rice; conditions: 120 g per 10 ares, 14 days after application
Method: (§2) Herbicidal Effect Test by Soil Application in Paddy Rice
(§3) Wagner pots with an area of […] were filled with paddy soil, followed by addition of water and incorporation of chemical fertilizer (N:P:K=16:16:16), after which puddling was performed. After that, seeds of Echinochloa crus-galli var. formosensis, broad-leaved weeds (Lindernia pyxidaria and Monochoria vaginalis), and Scirpus juncoides were sown at a depth of 0 cm to 1 cm, 30 seeds each. Immediately after sowing, the pots were flooded and a water depth of approximately 3 cm was maintained. Subsequent management was conducted in a glass greenhouse. Immediately thereafter, an emulsifiable concentrate prepared according to Formulation Example 5 using the compound shown below was diluted with water, and a specified amount of the diluted solution was applied by dropper. The amount of the active ingredient to be applied was equivalent to 120 g per 10 ares.
(§4) The present test was conducted in duplicate for each chemical concentration group, and the weed inhibition rate (%) was determined 14 days after chemical application using the following formula (Math. 1).

[3] = test system: Scirpus juncoides; assay: as above; conditions: 120 g per 10 ares, 14 days after application
Method: as §2, §3, §4

[4] = test system: Echinochloa crus-galli var. formosensis; assay: Test Example 2: herbicidal effect test by application during growth period of paddy rice; conditions: 7 days after sowing, 120 g per 10 ares, 14 days after application
Method: as §1
as §3, with “(Lindemia pyxidaria,” for “(Lindernia pyxidaria”, “Seven days after sowing,” for “Immediately thereafter,”, “ares. The test was conducted in duplicate for each chemical concentration group, and the herbicidal effect was evaluated 14 days after chemical application using the same criteria as in Test Example 1.” for “ares.”

[5] = test system: Amaranthus viridis; assay: Test Example 3: herbicidal effect test by soil application in upland field; conditions: 1 day after sowing, 120 g per 10 ares, 14 days after application
Method: (§5) Herbicidal Effect Test by Soil Application in Upland Field
(§6) Pots with an area of 36 cm^2 were filled with upland soil (alluvial loam), twenty seeds each of weeds of Digitaria ciliaris, Echinochloa crus-galli, Chenopodium album, and Amaranthus viridis were uniformly mixed with the top 1 cm layer of soil and the surface was lightly pressed down. One day after sowing, an emulsifiable concentrate prepared according to Formulation Example 5 using the compound shown below was diluted with water, and the diluted solution was sprayed onto the soil surface at a rate of 100 liters per 10 ares. The amount of the active ingredient to be applied was equivalent to 120 g per 10 ares. Fourteen days after chemical application, the herbicidal effect was evaluated according to the same criteria as in Test Example 1.

[6] = test system: Chenopodium album; assay: as above; conditions: 1 day after sowing, 120 g per 10 ares, 14 days after application
Method: as §5, §6

[7] = test system: Digitaria ciliaris; assay: as above; conditions: 1 day after sowing, 120 g per 10 ares, 14 days after application
Method: as §5, §6

[8] = test system: Echinochloa crus-galli; assay: as above; conditions: 1 day after sowing, 120 g per 10 ares, 14 days after application
Method: as §5, §6

[9] = test system: Digitaria ciliaris; assay: Test Example 4: herbicidal effect test by stem and leaf treatment in upland field; conditions: 7 days after sowing, 120 g per 10 ares, 14 days after application
Method: (§7) Herbicidal Effect Test by Stem and Leaf Treatment in Upland Field
as §6, with “Seven days” for “One day”

[10] = test system: Echinochloa crus-galli; assay: as above; conditions: 7 days after sowing, 120 g per 10 ares, 14 days after application
Method: as §7
as §6, with “Seven days” for “One day”

[11] = test system: Echinochloa crus-galli var. formosensis; assay: Test Example 5: herbicidal effect test by soil application in paddy rice; conditions: 7.5 g per 10 ares, 14 days after application
Method: as §2
as §3, with “(Lindemia pyxidaria,” for “(Lindernia pyxidaria”, “7.5” for “120”
(§8) The present test was conducted in duplicate for each chemical concentration group, and the herbicidal effect was evaluated 14 days after chemical application using the same criteria as in Test Example 1.

[12] = test system: Scirpus juncoides; assay: as above; conditions: 7.5 g per 10 ares, 14 days after application
Method: as §2
as §3, with “(Lindemia pyxidaria,” for “(Lindernia pyxidaria”, “7.5” for “120”
as §8

[13] = test system: Amaranthus viridis; assay: Test Example 7: herbicidal effect test by soil application in upland field; conditions: 1 day after sowing, 7.5 g per 10 ares, 14 days after application
Method: as §5
as §6, with “7.5” for “120”

[14] = test system: Echinochloa crus-galli; assay: as above; conditions: 1 day after sowing, 7.5 g per 10 ares, 14 days after application
Method: as §5
as §6, with “7.5” for “120”

[15] = test system: Echinochloa crus-galli; assay: Test Example 8: herbicidal effect test by stem and leaf treatment in upland field; conditions: 7 days after sowing, 7.5 g per 10 ares, 14 days after application
Method: as §7
as §6, with “Seven days” for “One day”, “7.5” for “120”

Row | SMILES | inhibition at 75 g/ha [1] | weed inhibition rate [2] | weed inhibition rate [3] | weed inhibition rate [4] | weed inhibition rate [5] | weed inhibition rate [6] | weed inhibition rate [7] | weed inhibition rate [8] | weed inhibition rate [9] | weed inhibition rate [10] | weed inhibition rate [11] | weed inhibition rate [12] | weed inhibition rate [13] | weed inhibition rate [14] | weed inhibition rate [15]
1 | C=C1C(OCc2ccccc2C)C2(C)CCC1(C(C)C)O2 (stereo not drawn) | 20% | – | – | – | – | – | – | – | – | – | – | – | – | – | –
2 | CC(C)[C@]12C[C@@H](OCc3ccccc3C(F)(F)F)[C@](C)(CC1=O)O2 [2-29, (1R,4S5R)-1-isopropyl-4-methyl-5-((2-(trifluoromethyl)benzyl)oxy)-7-oxabicyclo[2.2.1]heptan-2-one] | – | ≥ 80% | ≥ 80% | ≥ 80% | ≥ 80% | ≥ 80% | ≥ 80% | ≥ 80% | ≥ 80% | ≥ 80% | ≥ 80% | ≥ 80% | ≥ 80% | ≥ 80% | ≥ 80%
